These are literature values, as cited in patent US20230346892A1, “TREATMENT OF LONG BONE FRACTURES WITH ABALOPARATIDE” (Radius Health, Inc., priority 2021, published 2023).

Series [1] deals with internally fixed femur fractures. The note with it: rats with internally fixed femur fractures; Lanske et al. 2019.

On to abaloparatide, for which the fracture healing result in series [1] is given as “improved fracture healing”. In addition, in the series with osteoporosis (compared with teriparatide, treating osteoporosis, Sleeman 2019, Miller 2016), the “bone mineral density increases” value is “greater bone mineral density increases”. Also, the hypercalcemia result in the series on osteoporosis (in vivo) is reported as “less hypercalcemia”.
